Results on 1 compound are retold here after paper PMC10786919, “Design-rules for stapled peptides with in vivo activity and their application to Mdm2/X antagonists” (Nature Communications, 2024).

≈ marks a conversion by molar mass, not a printed value. Like-named read-outs stand apart in the source and are kept apart here. Positions of bridges follow the written chain, without caps; N, C: chain ends. Non-standard residues stand in square brackets, D forms with d. Residues, ends and D or L forms follow the SMILES beside them. dPhe(4-CF3) = N[C@H](Cc1ccc(C(F)(F)F)cc1)C(=O)O; dTrp(6-F) = N[C@H](Cc1c[nH]c2cc(F)ccc12)C(=O)O; R5 = C=CCCC[C@@](C)(N)C(=O)O

In series [1] the test system is HCT116 cells. The experiment in a line: Lactate dehydrogenase (LDH) release assay. It counts as cell-based. In a few lines: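 HCT116 cells stably carrying a p53-responsive β-lactamase reporter, seeded at 8000 cells/well, exposed to compound with 0.5% final DMSO. LDH release read with the CytoTox-ONE membrane integrity kit. Values are geometric means of at least three biological replicates.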

Series [2] in a line: Solubility assay (kinetic solubility, PBS pH 7). The class given is physicochemical. To be noted: pH 7, Solubility. In a few lines:
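Next, measure peak areas of sample and standard. Finally, multiply their ratio by the standard concentration to obtain solubility (µM).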

The nature of series [3]: physchem.
In series [4] the test system is CellSensor p53RE-bla HCT-116 Cell Line. The settings on record: read-out: Cell Proliferation assay EC50, HCT116; p53 WT, HCT116. In a few lines:
(§1)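 Compound dilution series (10 points, 3-fold, 10 mM top stock in DMSO) tested on overnight-plated Ca Ski cells in RPMI1640/10% FBS and on blasticidin-selected p53RE-bla HCT-116 cells in McCoy's 5A; read-out was CellTiter-Glo 2.0 luminescence after room-temperature equilibration.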

For series [5], the system named is Ca Ski cell line. To be noted: read-out: Cell Proliferation assay EC50, Ca-Ski; p53 Mut, Ca-Ski. In a few lines:
as §1

Series [6] is described as follows: Experimental LogD (partition coefficient). To be noted: not stated, Partition Coeff LogD.
Series [7] concerns Jump-In T-REx CHO-K1 BLA cells. The experiment in a line: cells. The settings on record: for EC50: read-out: TETCHO: Counterscreen EC50. It counts as cell-based. A general note: The purpose of a counterscreen is to sort out artefacts and off-target activity.

The kinetic solubility is solubility judged after dilution from a stock solution rather than from solid. What is called logD is lipophilicity at a set pH, counting ionised and neutral species. In the case of `CC(C)C[C@@H](NC(=O)[C@@]1(C)CCCC=CCCC[C@@](C)(NC(=O)[C@@H](C)NC(=O)[C@@H](Cc2ccc(O)cc2)NC(=O)[C@@H](Cc2c[nH]c3cc(F)ccc23)NC(=O)[C@@H](C)NC(=O)[C@H](N)[C@H](C)O)C(=O)N[C@H](Cc2ccc(C(F)(F)F)cc2)C(=O)N[C@H](CCC(=O)O)C(=O)N[C@H](CCC(N)=O)C(=O)N1)C(=O)N[C@H](CO)C(N)=O` [MP-795] (H-[dT][dA][dTrp(6-F)][dY][dA][R5][dPhe(4-CF3)][dE][dQ][R5][dL][dS]-NH2; staple 6-10), the results for the “LDH: Cytotoxicity assay % Effect” value in series [1] (0% FBS 4Hr) and in series [1] (10% FBS 16Hr) were 13.17% and 16.65%, respectively. In addition, in series [2], the solubility (kinetic) was determined as 1 µM (≈ 1.55 µg/mL). In series [3], this compound displayed an EPSA of 234 A^2. Also, the EC50 in series [4] was 26.4 µM; in series [5] it was 22.5 µM; in series [7] (0% FBS 4Hr) it was above 50.4 µM; in series [7] (10% FBS 16Hr), above 50.4 µM. Besides, in series [6], the logD worked out at 2.32. Also, the entries for the “TETCHO: Counterscreen % Effect” value in series [7] (0% FBS 4Hr) and in series [7] (10% FBS 16Hr) were 35.97% and 0.2467%, respectively.
